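48-hour exposure; five concentrations; linearly interpolated endpoints. TGI is the concentration that stops growth completely.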
Assays:
Assay in all cases: growth of human tumour cells (NCI), 48 h
OVCAR-4 ovarian = tested on: OVCAR-4 ovarian
COLO 205 colon = tested on: COLO 205 colon
T-47D breast = tested on: T-47D breast
NCI/ADR-RES ovarian = tested on: NCI/ADR-RES ovarian
MALME-3M melanoma = tested on: MALME-3M melanoma
CCRF-CEM leukemia = tested on: CCRF-CEM leukemia
OVCAR-8 ovarian = tested on: OVCAR-8 ovarian
EKVX NSCLC = tested on: EKVX NSCLC
HS 578T breast = tested on: HS 578T breast
M14 melanoma = tested on: M14 melanoma
UACC-257 melanoma = tested on: UACC-257 melanoma
UACC-62 melanoma = tested on: UACC-62 melanoma
A549 NSCLC = tested on: A549 NSCLC
SK-MEL-28 melanoma = tested on: SK-MEL-28 melanoma
SF-539 CNS = tested on: SF-539 CNS
HOP-62 NSCLC = tested on: HOP-62 NSCLC
MOLT-4 leukemia = tested on: MOLT-4 leukemia
TK-10 renal = tested on: TK-10 renal
DU-145 prostate = tested on: DU-145 prostate
K-562 leukemia = tested on: K-562 leukemia

Measured: TGI

CC(C)[Si]1(C(C)C)OCC2OC(n3ccc(=O)[nH]c3=O)C([Se]c3ccccc3)C2O[Si](C(C)C)(C(C)C)O1 (configuration not stated)
> 24.4 µM: CCRF-CEM leukemia
13.9 µM: UACC-257 melanoma
5.46 µM: HS 578T breast
10.7 µM: OVCAR-8 ovarian
16.6 µM: COLO 205 colon
20.7 µM: SF-539 CNS
8.93 µM: MALME-3M melanoma
22.1 µM: A549 NSCLC
19.9 µM: T-47D breast | TK-10 renal
12.5 µM: SK-MEL-28 melanoma
21.8 µM: M14 melanoma
25.2 µM: HOP-62 NSCLC
24.7 µM: DU-145 prostate
26.7 µM: NCI/ADR-RES ovarian
14.8 µM: UACC-62 melanoma
9.67 µM: OVCAR-4 ovarian
> 22.9 µM: MOLT-4 leukemia
17.5 µM: EKVX NSCLC

O=C(Cn1c2ccc(Br)cc2c2nc3ccccc3nc21)Nc1ccccc1
76.9 µM: HS 578T breast
79 µM: MALME-3M melanoma
99.4 µM: OVCAR-4 ovarian
57.1 µM: T-47D breast
28.4 µM: OVCAR-8 ovarian
38.2 µM: A549 NSCLC
45.1 µM: NCI/ADR-RES ovarian
not listed: EKVX NSCLC | SF-539 CNS
> 100 µM: all other assays above

O=C1CSC(c2ccccc2O)N1c1ccc(-n2c(-c3ccccc3)nc3ccccc3c2=O)cc1 (configuration not stated)
82.2 µM: UACC-257 melanoma
72.6 µM: NCI/ADR-RES ovarian
74.6 µM: MALME-3M melanoma
77.5 µM: HOP-62 NSCLC
58.9 µM: SF-539 CNS
65.8 µM: T-47D breast
90.3 µM: UACC-62 melanoma
not listed: EKVX NSCLC
> 100 µM: all other assays above

Cc1cc(NS(=O)(=O)c2ccc(N=[N+]([O-])c3ccc(S(=O)(=O)Nc4cc(C)on4)cc3)cc2)no1
not listed: SK-MEL-28 melanoma
> 100 µM: all other assays above

CCOC(=O)c1c[nH]c(C(=O)C=[N+]=[N-])c1C1CCN(CC)C1=S (configuration not stated)
not listed: CCRF-CEM leukemia | SF-539 CNS
> 100 µM: all other assays above

Cc1ccc(S(=O)(=O)N2CCNCCN(S(=O)(=O)c3ccc(C)cc3)CCNCC2)cc1
71.8 µM: DU-145 prostate
33 µM: UACC-257 melanoma
34.5 µM: UACC-62 melanoma
31.7 µM: T-47D breast
82.4 µM: OVCAR-4 ovarian
35.7 µM: HS 578T breast
33.1 µM: MALME-3M melanoma
34.8 µM: HOP-62 NSCLC
> 100 µM: NCI/ADR-RES ovarian | EKVX NSCLC | A549 NSCLC
34.7 µM: M14 melanoma | SF-539 CNS
44 µM: TK-10 renal
31.4 µM: K-562 leukemia
31.1 µM: COLO 205 colon
36.9 µM: OVCAR-8 ovarian
37.6 µM: SK-MEL-28 melanoma

NC(=O)[N+](=CC(=S)Nc1ccccc1Cl)C(N)=O
not listed: MALME-3M melanoma | SK-MEL-28 melanoma
> 100 µM: all other assays above

C=C1C(=O)O[C@H]2C1C[C@H](O)[C@@]1(C)OC1CC[C@@]1(C)O[C@H]21 (some centres not stated)
73.3 µM: HOP-62 NSCLC
29.8 µM: MOLT-4 leukemia
36.4 µM: T-47D breast
19.7 µM: K-562 leukemia
37.8 µM: UACC-257 melanoma
29.6 µM: OVCAR-4 ovarian
35.9 µM: SK-MEL-28 melanoma
38.4 µM: EKVX NSCLC
44 µM: NCI/ADR-RES ovarian
30.6 µM: M14 melanoma
8.68 µM: CCRF-CEM leukemia
28.2 µM: UACC-62 melanoma
16.9 µM: COLO 205 colon
27.4 µM: MALME-3M melanoma
39.6 µM: OVCAR-8 ovarian
> 100 µM: HS 578T breast | A549 NSCLC | DU-145 prostate
36.5 µM: TK-10 renal

Cc1ccc(S(=O)(=O)N/N=C2/CCC3(O)CC2(C)CCC2[C@H]3CC2(C)C)cc1 (some centres not stated)
90.7 µM: K-562 leukemia
60 µM: UACC-62 melanoma
61.2 µM: SK-MEL-28 melanoma
33.1 µM: COLO 205 colon
45.2 µM: MOLT-4 leukemia
86.1 µM: CCRF-CEM leukemia
not listed: SF-539 CNS
> 100 µM: all other assays above

COc1ccc(COCC[C@H](C)OC2OC(CO)C(O)C(O)C2O)cc1 (some centres not stated)
not listed: MALME-3M melanoma
> 100 µM: all other assays above

C[C@@H]1CC[C@H]2[C@H](C)C(OC3O[C@@H]4O[C@@]5(C)CC[C@H]6[C@H](C)CC[C@@H]([C@@H]3C)[C@@]46O5)O[C@@H]3O[C@@]4(C)CC[C@@H]1[C@]32O4 (some centres not stated)
not listed: NCI/ADR-RES ovarian
> 100 µM: all other assays above

COc1cc([C@@H]2c3cc4c(cc3[C@@H](Nc3ccc(Cl)cc3C(=O)c3ccccc3)[C@H]3COC(=O)[C@H]23)OCO4)cc(OC)c1OC
0.926 µM: HS 578T breast
0.669 µM: SF-539 CNS
78.4 µM: SK-MEL-28 melanoma
not listed: COLO 205 colon
> 100 µM: all other assays above

CCCc1nc2c(n1CC)C(=O)c1ccccc1C2=O
60.5 µM: MALME-3M melanoma
94 µM: M14 melanoma
45.6 µM: UACC-257 melanoma
78.7 µM: NCI/ADR-RES ovarian
not listed: OVCAR-8 ovarian | EKVX NSCLC
> 100 µM: all other assays above

O=[N+]([O-])c1ccc(-c2nn3c(C45CC6CC(CC(C6)C4)C5)nnc3s2)c(Cl)c1
not listed: UACC-257 melanoma
> 100 µM: all other assays above

CC(=O)/C(=C\I)c1ccccc1
40.5 µM: HS 578T breast
34.2 µM: SF-539 CNS
5.35 µM: MOLT-4 leukemia
3.14 µM: COLO 205 colon
15.5 µM: UACC-257 melanoma
33.3 µM: EKVX NSCLC
3.45 µM: OVCAR-8 ovarian
10.4 µM: SK-MEL-28 melanoma
4.61 µM: K-562 leukemia
26.8 µM: TK-10 renal
5.19 µM: CCRF-CEM leukemia
46.9 µM: HOP-62 NSCLC
3.83 µM: T-47D breast
30 µM: A549 NSCLC
15.3 µM: DU-145 prostate
25 µM: NCI/ADR-RES ovarian
4.4 µM: M14 melanoma
3.33 µM: MALME-3M melanoma
3.96 µM: UACC-62 melanoma

O=C1Oc2ccccc2C(=O)/C1=C/N1C(=O)CNC1=S
not listed: MALME-3M melanoma
> 100 µM: all other assays above

O=C1OC([C@H](O)c2cccnc2)c2ccccc21 (some centres not stated)
not listed: MALME-3M melanoma
> 10 µM: all other assays above

O=c1c(Sc2c(SCSc3cnc4ccccc4c3Sc3c[nH]c4ccccc4c3=O)cnc3ccccc23)c[nH]c2ccccc12
not listed: MALME-3M melanoma | A549 NSCLC | K-562 leukemia
> 100 µM: all other assays above

COC(=O)[C@@](NC(=O)OCc1ccccc1)([C@H](C)O)C(F)(F)F
not listed: SF-539 CNS
> 100 µM: all other assays above

CC(C)(C)O/N=C/c1cc(NC(=S)c2ccsc2)ccc1Cl
17.1 µM: DU-145 prostate
57.3 µM: CCRF-CEM leukemia
63.8 µM: A549 NSCLC
26.6 µM: TK-10 renal
31.4 µM: M14 melanoma
33.9 µM: NCI/ADR-RES ovarian
29.7 µM: OVCAR-8 ovarian
29.4 µM: HOP-62 NSCLC
28.8 µM: UACC-62 melanoma
41.1 µM: EKVX NSCLC
39.2 µM: SK-MEL-28 melanoma
28.3 µM: COLO 205 colon
25.2 µM: UACC-257 melanoma
31.5 µM: MALME-3M melanoma
26.1 µM: MOLT-4 leukemia
37 µM: SF-539 CNS
57 µM: HS 578T breast
28.7 µM: OVCAR-4 ovarian
16.1 µM: T-47D breast

CSc1nc(=O)cnn1C
not listed: SF-539 CNS
> 100 µM: all other assays above

Cc1cn(C2CC(N=[N+]=[N-])C(COP(=O)(O)OCC3OC(n4cc(F)c(=O)[nH]c4=O)CC3O)O2)c(=O)[nH]c1=O (configuration not stated)
> 44 µM: SF-539 CNS
> 20.2 µM: MALME-3M melanoma
> 24.6 µM: NCI/ADR-RES ovarian
22.7 µM: EKVX NSCLC
> 37.2 µM: MOLT-4 leukemia
> 65.7 µM: K-562 leukemia
not listed: OVCAR-4 ovarian
> 100 µM: all other assays above

CCCCCCCCCCCCCCCCNC(=O)/C(=C\c1ccc(Cl)c(Cl)c1)NC(=O)c1ccccc1
64.3 µM: K-562 leukemia
37.5 µM: MOLT-4 leukemia
30.8 µM: SF-539 CNS
70.7 µM: DU-145 prostate
48.8 µM: TK-10 renal
51.6 µM: HOP-62 NSCLC
84.4 µM: OVCAR-4 ovarian
not listed: CCRF-CEM leukemia | UACC-62 melanoma
> 100 µM: all other assays above

CCOc1ccc(NC(=O)C(=O)Nn2c(N)nnc2N)cc1
not listed: COLO 205 colon | DU-145 prostate
> 100 µM: all other assays above

Reference: PubChem BioAssay (NCI)
